Experimental data as given in ChEMBL document CHEMBL1132305, “Effect of aromatic short-chain analogues of ceramide on axonal growth in hippocampal neurons” (1999).

Species: Rattus norvegicus
Assay: Effect on the growth of axons of hippocampal neurons stimulated by basic fibroblast growth factor (bFGF), no. of axonal branch points/cell at 51 hr upon incubation with bFGF 1.52 0.09
Assay type: functional

**Q.** With CCCCCCC/C=C/[C@@H](O)[C@H](CO)NC(C)=O as the compound, how does the “No. of axonal branch points/cell” value read?
**A.** Its value is 1.5.

**Q.** How did the “No. of axonal branch points/cell” value turn out when CCCCCC(=O)N[C@@H](CO)[C@H](O)/C=C/c1ccccc1 was run?
**A.** Its value is 1.45.

**Q.** How did the “No. of axonal branch points/cell” value turn out when CCCCCCC/C=C/[C@H](O)[C@H](CO)NC(=O)CCCCC was run?
**A.** Its value is 1.18.

**Q.** For CCCC[C@H](C)[C@@H](OC(=O)C[C@H](CC(=O)O)C(=O)O)[C@@H](C[C@H](C)C[C@@H](O)CCCC[C@@H](O)C[C@H](O)[C@H](C)N)OC(=O)C[C@H](CC(=O)O)C(=O)O, which “No. of axonal branch points/cell” value is on record?
**A.** Its value is 1.12.

**Q.** Which “No. of axonal branch points/cell” value does the source give for CC(=O)N[C@@H](CO)[C@H](O)/C=C/c1ccccc1 here?
**A.** Its value is 1.3.

**Q.** For CCCCCCCC(=O)N[C@@H](CO)[C@H](O)/C=C/c1ccccc1, which “No. of axonal branch points/cell” value is on record?
**A.** The value was 1.4.

**Q.** Which “No. of axonal branch points/cell” value does the source give for CCCCCC(=O)N[C@@H](CO)[C@@H](O)/C=C/c1ccccc1 here?
**A.** Its value is 1.22.

**Q.** CCCC(=O)N[C@@H](CO)[C@H](O)/C=C/c1ccccc1 was tested. Which “No. of axonal branch points/cell” value did it give?
**A.** Its value is 1.38.

**Q.** How did the “No. of axonal branch points/cell” value turn out when CCCCCCC/C=C/[C@@H](O)[C@H](CO)NC(=O)CCCCC was run?
**A.** The value was 1.3.
